The source of these data is article PMC7696666, “Epithelial Transfer of the Tyrosine Kinase Inhibitors Erlotinib, Gefitinib, Afatinib, Crizotinib, Sorafenib, Sunitinib, and Dasatinib: Implications for Clinical Resistance” (Cancers, 2020).

“Also recorded” adds a separate entry of the source. Where two headings read alike, the source gives them in different places.

A short description of data set [1]: CaCo2 Transwell transport (Papp, efflux ratio). In kind it is in vitro ADME, human. Particulars: human. As to the method:
(§1) The Transwell system was developed using the wild type Caco-2 cell line (passage 15–25) cultured in Dulbecco’s […] medium (DMEM) at standard conditions of 37 °C, 5% CO2, and 100% humidity as previously reported. […] To ensure a controlled growth environment the plate was covered with Breathe-Easier cell culture foil during the incubation period. The integrity of the developed monolayer was assessed by TEER before administration of compound solutions and after the final sampling stage.
(§2) The initial concentration of the drug was verified from a 20 µL sample taken immediately from the donor compartment after drug administration (t = 0).
(§3) The permeability coefficient (Papp) represents a measure for the efficiency of transport and was calculated with the following equation: Papp=ΔQ/Δt×V/C0⋅A where ∆Q/∆t = the rate of increase in drug concentration (accumulative mass transport) in the receiver compartment over time (µM/s), V = volume in the receiver compartment (mL), C0 = the initial concentration of drug in the donor compartment (µM), and A = the membrane surface area (cm^2).
(§4) To take into account the slightly nonlinear transfer characteristics of each compound, the rate of increase in drug concentration was determined for each time period and the Papp was then calculated. The average Papp was then determined with units of cm/s × 10^−6 or µm/s.
(§5) The efflux ratio was calculated according to the equation: Efflux ratio=PappB→A/PappA→B.
(§6) Statistical significance was determined using a simple Student’s t-test where a p value of <0.05 was considered significant.

The subject of data set [2] is CaCo2 monolayer. As to the kind of experiment: CaCo2 Transwell transport (Papp, efflux ratio). In kind it is in vitro ADME, human. As to the method:
as §1, §2, §3, §4, §5, §6

For data set [3], the system named is CaCo2 cells. As to the kind of experiment: Intracellular accumulation in CaCo2 Transwell cells at the end of the transport period. In kind it is in vitro ADME, human. Particulars: for Intracellular accumulation at the end of the transfer period (A->B): A->B incubation. As to the method:
(§7) In order to get insight in the barrier role of the CaCo2 model system, we determined the intracellular accumulation of the TKISs at the end of the transport period, in normal monolayers of CaCo2 cells and in several other colon cancer cell lines. At the end of the transport period (both from the B->A and A->B incubations), cells were harvested and intracellular accumulation was determined.
(§8) These cells were exposed to 20 μM of a TKI and were harvested after 2 h for determination of TKI concentration with LC-MS-MS. Values are means ± SEM for the number of experiments described in Figure 3, Figure 4, and Figure 5 and from three separate experiments for the monolayer CaCo2 and WiDr cells. […] A->B, mass transport from A to B; B->A, mass transport from B to A. For AFA, CRI, and DAS, no data in WiDr cells were available. […] The bar heights were not read.
(§9) In a different set of experiments, the CaCo2 cells were cultured in 6-wells plates as monolayers until semiconfluency. Two other colon cancer cell lines, WiDr and HT29, were cultured similarly. These cells were exposed for 2 h to various TKIs at concentrations varying from 50 nM to 20 µM). […] At the end of the incubation, cells were harvested, as described earlier, and extracted for drug analysis using LC-MS-MS as described above.

The subject of a further data set is HT29 cells. In words: Intracellular accumulation in HT29 colon cancer cells. As to conditions: after 24 h. In kind it is in vitro ADME. As to the method:
as §7
In a different set of experiments, the CaCo2 cells were cultured in 6-wells plates as monolayers until semiconfluency. Two other colon cancer cell lines, WiDr and HT29, were cultured similarly. […]

In data set [4] the test system is WiDr cells. In words: Growth inhibition of WiDr cells. In kind it is cell-based. As to conditions: Homo sapiens, 72 hr exposure, read-out: Concentration leading to 50% growth inhibition.
On the set-up of data set [5]: method as in PMID 17429625. Particulars: ref [32]; cited from earlier work.
Details of data set [6]: method as in PMID 30544701. As to conditions: method not given, ref [45], cited from earlier work.
Data set [7] concerns CaCo2 cells. As to the kind of experiment: Intracellular accumulation in CaCo2 cells grown as normal monolayers. In kind it is in vitro ADME, human. As to conditions: 20 μM, 2 h. As to the method:
as §8, §9

Data set [8] relates to WiDr cells. In words: Intracellular accumulation in WiDr colon cancer cells (monolayer). In kind it is in vitro ADME. Particulars: 20 μM, 2 h. As to the method: as §8, §9
Data set [9] can be described thus: Disposition in blood compartments (whole blood, plasma, serum) of patients. In kind it is in vivo, human. As to conditions: clinical samples. As to the method: Each individual sample was divided into two components; a 1 mL of tube of whole blood and 0.5 of plasma, each sample was stored at −20 °C until analysis could be performed. An additional serum sample was also obtained for patients treated with erlotinib. Blood samples for afatinib were obtained from NSCLC patients after 4 days receiving the standard daily dose of 40 mg.
Blood samples were taken at 1, 2, and 30 days after the start of treatment. Samples were separated from the whole blood into plasma, serum, and a packed red blood cell pellet (using the MESED apparatus). In a dose escalation study in order to determine whether a high pulsatile dose of sorafenib could be given to patients, we analyzed red blood cells and whole blood in 12 patients treated with sorafenib at total doses ranging from 2000 to 2800 mg daily. From these patients, samples were collected in 3 cycles.
For sunitinib, initially pharmacokinetic samples were collected over the first 24 h period from a single patient, with a renal cell carcinoma receiving a nonstandard treatment schedule (700 mg biweekly), in comparison to the standard 50 mg daily dose. Whole blood samples were divided into plasma, serum, and a packed red blood cell pellet. This cohort could later be extended with 6 patients treated with 800 mg sunitinib every 2 weeks enrolled in a clinical study to determine the tolerability of pulsatile sunitinib.
Five blood samples were taken over a 5-month period and divided into whole blood, an extracted 100 µL of red blood cells, and a plasma sample.

The test system of data set [10] is CaCo2 monolayer. As to conditions: 20 µM, previously reported, ref [39], cited from earlier work.

As to `Cc1nc(Nc2ncc(C(=O)Nc3c(C)cccc3Cl)s2)cc(N2CCN(CCO)CC2)n1` [Dasatinib, dasatinib], the efflux ratio at 180 min, 20 µM in [1] (Caco-2, 20 µM, read-out: Efflux Ratio (Papp B–A / Papp A–B)) is more than 5. Moreover, the Papp A→B at 180 min, 20 µM in data set [1] (Caco-2, 20 µM, A–B, read-out: Papp (Apical Basolateral)) stood at 34 ± 34 nm/s. The Papp B→A at 180 min, 20 µM in [1] (Caco-2, 20 µM, B–A, read-out: Papp (Basolateral Apical)) came to 204 ± 135 nm/s. The “Efflux Ratio (Papp B–A / Papp A–B)” value in the data set with CaCo2 monolayer [2] (20 µM) was determined as 6.0. In addition, in the data set with CaCo2 monolayer [2] (20 µM, A–B, 3 h), the “Total amount transferred apical to basolateral in 3 h” value turned out to be 499.3 pmol. Moreover, the Papp basolateral to apical with CaCo2 monolayer [2] (20 µM, B–A) came to 204 nm/s. In addition, the “Total amount transferred basolateral to apical in 3 h” value with CaCo2 monolayer [2] (20 µM, B–A, 3 h) is 13,889 pmol. The “Efflux Ratio (Papp B–A / Papp A–B)” value in the data set on CaCo2 monolayer [2] (20 µM, listed as dasatinib) was more than 6. The “Intracellular accumulation at the end of the transfer period (A->B)” value in the data set on CaCo2 cells [3] is reported as 1.1 pmol/μg protein. For the same compound, the “Intracellular accumulation in HT29 cells” value in the data set with HT29 cells amounted to 0.14 pmol/μg protein. Besides, the IC50 with WiDr cells [4] worked out at 0.06 µM. Further, the “Bioavailability (animal)” value in [5] is 14–27 [32] (animal) %. Besides, in data set [6], the “Log P” value is 2.24, the “Log D (pH 5.5)” value is listed as −0.44 and the “Log D (pH 7.5)” value was 2.17.

Regarding `C#Cc1cccc(Nc2ncnc3cc(OCCOC)c(OCCOC)cc23)c1` [Erlotinib, erlotinib], the efflux ratio at 180 min, 10 µM turned out to be 1.6 in [1] (Caco-2, 10 µM, read-out: Efflux Ratio (Papp B–A / Papp A–B)) and 1.4 in data set [1] (Caco-2, with sorafenib (co-incubated, concentration not stated), 10 µM, with sorafenib, read-out: Efflux Ratio (Papp B–A / Papp A–B)). In addition, the Papp A→B at 180 min, 10 µM in [1] (Caco-2, with sorafenib (co-incubated, concentration not stated), 10 µM, A–B, with sorafenib, read-out: Papp (Apical Basolateral)) worked out at 3.5 ± 1.7 nm/s; in [1] (Caco-2, 10 µM, A–B, read-out: Papp (Apical Basolateral)), 4.8 ± 2.6 nm/s. For the same compound, the Papp B→A at 180 min, 10 µM in data set [1] (Caco-2, with sorafenib (co-incubated, concentration not stated), 10 µM, B–A, with sorafenib, read-out: Papp (Basolateral Apical)) came out at 4.8 ± 3 nm/s; in data set [1] (Caco-2, 10 µM, B–A, read-out: Papp (Basolateral Apical)), 7.9 ± 6.5 nm/s. Besides, the “Papp apical to basolateral” value with CaCo2 monolayer [2] (10 µM, A–B) stood at 0.48 µm/s. In the data set with CaCo2 cells [3], the “Intracellular accumulation at the end of the transfer period (A->B)” value is reported as “not detectable; also recorded: no erlotinib was detectable”. The “Intracellular accumulation at the end of the transfer period (B->A)” value in the data set with CaCo2 cells [3] (B->A incubation) is on record as “no erlotinib was detectable”. Further, the “Intracellular accumulation in CaCo2 monolayer” value in the data set with CaCo2 cells [7] is on record as “just detectable”. The “Intracellular accumulation in WiDr cells” value with WiDr cells [8] is listed as “no erlotinib”. Moreover, the “Intracellular accumulation in HT29 cells” value in the data set with HT29 cells is on record as 0.035 pmol/μg protein. In addition, the blood plasma ratio in data set [9] (human, whole blood and plasma, oral, read-out: Blood to plasma ratio) was more than 30. Besides, the “Fold higher in whole blood compared to plasma” value in [9] (standard dosing regimen) stood at 100 fold. The “Papp (Apical Basolateral)” value in the data set with CaCo2 monolayer [10] (A–B) was 0.13 ± 0.001 ×10^−6 cm/s. Further, the “Papp (Basolateral Apical)” value in the data set on CaCo2 monolayer [10] (B–A) was 0.70 ± 0.30 ×10^−6 cm/s. For the same compound, the results for the “Efflux Ratio (Papp B–A / Papp A–B)” value with CaCo2 monolayer [10] and with CaCo2 monolayer [10] (listed as erlotinib) were 5.4 and more than 5, respectively. In data set [6], the “Log P” value was 2.39. Moreover, the “Log D (pH 5.5)” value in data set [6] was 2.74. Further, the “Log D (pH 7.5)” value in data set [6] is 3.04.
